The text below walks through data of patent publication US20090130691A1, “SCREENING PROTEINASE MODULATORS USING A CHIMERIC PROTEIN AND SKI-I PROPROTEIN CONVERTASE SUBSTRATES AND INHIBITORS” (Institut de Recherches Cliniques de Montreal, priority 2005, published 2009).

Where two headings read alike, the source gives them in different places. Residues, ends and D or L forms follow the SMILES beside them. *: point of attachment. Decanoyl = CCCCCCCCCC(=O)*; CH2Cl = ClC*

Test [1] addresses T1, SKI-1 (endogenous enzyme of CHOK1 cells) (UniProt Q9Z2A8).
T1 sequence: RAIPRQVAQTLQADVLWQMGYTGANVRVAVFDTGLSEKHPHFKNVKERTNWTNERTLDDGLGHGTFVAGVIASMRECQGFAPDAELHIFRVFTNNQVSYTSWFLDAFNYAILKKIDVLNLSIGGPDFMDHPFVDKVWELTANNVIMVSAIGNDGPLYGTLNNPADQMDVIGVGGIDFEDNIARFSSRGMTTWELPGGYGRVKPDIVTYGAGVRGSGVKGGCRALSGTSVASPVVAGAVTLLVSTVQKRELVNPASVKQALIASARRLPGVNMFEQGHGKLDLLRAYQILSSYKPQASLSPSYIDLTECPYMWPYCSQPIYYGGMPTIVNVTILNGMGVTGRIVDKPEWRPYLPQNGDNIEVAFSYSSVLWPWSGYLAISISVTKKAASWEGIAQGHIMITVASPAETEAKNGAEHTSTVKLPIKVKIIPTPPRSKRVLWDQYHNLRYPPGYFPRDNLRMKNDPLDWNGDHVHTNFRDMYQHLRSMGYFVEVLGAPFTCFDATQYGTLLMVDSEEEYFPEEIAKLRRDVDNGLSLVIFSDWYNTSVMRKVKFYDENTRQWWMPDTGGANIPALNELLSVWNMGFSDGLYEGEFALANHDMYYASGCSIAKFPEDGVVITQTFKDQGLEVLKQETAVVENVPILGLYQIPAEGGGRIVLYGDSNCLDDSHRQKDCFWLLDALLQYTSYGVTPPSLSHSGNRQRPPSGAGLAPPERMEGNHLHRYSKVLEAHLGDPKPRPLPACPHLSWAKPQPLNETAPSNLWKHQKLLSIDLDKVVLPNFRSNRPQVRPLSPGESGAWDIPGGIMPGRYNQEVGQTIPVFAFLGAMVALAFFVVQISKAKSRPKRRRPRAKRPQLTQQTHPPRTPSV
Description: cell-based or functional assay.

Test [2] deals with endogenous Furin-like PCs. Description: Ex vivo processing of proPDGF-A in HEK293 cells stably expressing PDGF-A-V5. Format: cell-based, human.
Test [3] relates to Furin-like PCs. Description: CELISA detection of HA tag on HeLa cells expressing Furin-like PC bait chimera. As to conditions: for effect of serpin expression on presence of the HA tag at the cell surface: PCfur-1.6 cells transfected or adenovirus infected. Format: cell-based, human. On the procedure:
A CELISA test was then used to confirm the results obtained by the FACS analysis (FIG. 7A). Pools of cells transfected with the chimera were rinsed twice with PBS. Then, at room temperature, the following steps were performed. Cells were fixed in PBS and 4% formalin 10 min. They were then rinsed twice with PBS. The anti-HA/peroxidase antibody diluted 1/8000 in PBS and 1% powdered milk (filtered) was then added. The cells were incubated 30 minutes on Labquake™. Again, the cells were rinsed twice with PBS. The substrate (2,2′ azino-Bis (3-ethylobenzathiazoline-6-sulfonic acid); Sigma) was added to the cells and the mixture was incubated 15 minutes. The OD was read at 405 nm and 470 nm for turbidity, and the subtraction of the reading at both wavelengths (405-470) gave normalized product absorbance. The CELISA assay was performed in the presence of different concentrations of dec-RVKR-cmk (SEQ ID NO:35). The signal/noise ratio obtained in the presence of 60 μM of dec-RVKR-CMK (SEQ ID NO: 35) was above 15. The CELISA (FIG. 7B) confirmed that the presence of the inhibitor increases the detection of HA at the surface of the cells.
Some PCfur-1.6 cells were transfected with an expression vector containing a cDNA coding for either α1-PDX or the α1-AT using lipofectamine as described by the manufacturer (Invitrogen) (less than 20% efficacy), or infected using recombinant adenovirus (Ad) as described (Benjannet et al., 2004) (near 100% efficacy).

For test [4], the system named is Furin-like PCs. The experiment in a line: FACS detection of HA tag on HeLa cells expressing Furin-like PC bait chimera. Format: cell-based, human. On the procedure:
HeLa cells were submitted to two rounds of fluorescence activated cell sorting (FACS) using Alexa488™ as fluorophore with a MoFlo™ cell sorter (Cytomation, Fort Collins, Colo., USA) to obtain pools of cells expressing the Fc (Fc positive) but negative for the HA tag (HA negative) (FIG. 7A, darker dots). The presence of Fc tags was the sign that cleavage by Furin-like PCs at the bait sequence KRIRLRR←SPD (SEQ ID NO: 29) had released the HA tag.
This isolated pool of cells was incubated for 6 h with 60 μM of dec-RVKR-cmk (SEQ ID NO: 35), a potent PC-inhibitor, and submitted to FACS analysis.
The FACS sorted cells pool was then used to isolate individual clones: 10 clones were isolated of which one (clone PCfur-1.6) expresses a large amount of Fc (i.e. […] chimera) at the cell surface.

The next test relates to NARC-1/PCSK9. The experiment in a line: Western blot of cells expressing NARC-1/PCSK9 bait (SN11) chimera. The settings on record: 50 μM, 6 h. The format is cell-based, human. An excerpt: A specific CELISA to the NARC-1/PCSK9 was designed using the approach described in Example 1 above. Chimeras were constructed using sequences known to be cleavable by NARC-1/PCSK9 (SSVFAQ-SIPWN (SEQ ID NO: 31)), or EEDSSVFAQ-SIPWN (SEQ ID NO: 55) combined to full length ACE2-CT segment, and then used to transfect HuH7. Chimeras are also similarly constructed using KHQKLL-SIDLD (SEQ ID NO: 32)). HuH7 was selected amongst 20 cell lines as being one in which the NARC-1/PCSK9 expression level the highest.
Cells expressing chimera containing the NARC/PCSK9 bait SSVFAQ-SIPWN (SEQ ID NO: 31) (SN11) were analyzed by Western blot. Cells were treated or not for 6 h with 50 μM of dec-RVKR-cmk (SEQ ID NO: 35) to inhibit endogenous Furin-like enzymes and thus indirectly activate NARC/PCSK9. Cells express an approximately equal amounts of ER- (endo H sensitive, not shown) and Golgi-associated (endo H resistant, not shown) SN11 chimera as observed using an HA mAb. […] The Western blot protocol used was a standard one using a monoclonal commercial anti-HA antibody coupled to horseradish peroxidase (Sigma; used as proposed by the manufacturer) at a final dilution of 1:5000.
Background: Immunoblotting shows a protein as a band on a membrane.

For test [5], the system named is Furin-like PCs. The experiment in a line: Western blot of cell-surface biotinylated proteins of PCfur-1.6 cells immunoprecipitated with HA antibody. Format: cell-based, human. As to conditions: PCfur-1.6 cells infected with recombinant adenovirus, 1× and 2×. The source says:
Similar confirmation was obtained using Western blots of cell-surface biotinylated proteins, immunoprecipitated with the HA-antibody and detected on Western using horseraddish peroxidase coupled streptavidin (WB streptavidin-HRP). The Western blot protocol used was a standard one using a monoclonal commercial anti-HA antibody coupled to horseraddish peroxidase (Sigma; used as proposed by the manufacturer) at a final dilution of 1:5000. […] This confirms that the HA reappears specifically in the presence of a PCs inhibitor. […] Small molecules were also identified with the assay (see Example 7).

Test [6] deals with T2, SKI-1 (Cricetulus griseus, UniProt Q9Z2A8).
T2 construct: endogenous in cells; host or cells: CHOK1
T2 sequence (Q9Z2A8 187-1052): T1 sequence
The experiment in a line: cell-based. The arrangement: species or system hamster.

The target of test [7] is T2, SKI-1. Description: cell-based.
Test [8] has as its target T3, SKI-1 (Homo sapiens, UniProt Q14703).
T3 construct: For SKI-1, several cell lines expressing SKI-1 could be used; endogenous in cells; host or cells: HuH7
T3 sequence (Q14703 187-1052): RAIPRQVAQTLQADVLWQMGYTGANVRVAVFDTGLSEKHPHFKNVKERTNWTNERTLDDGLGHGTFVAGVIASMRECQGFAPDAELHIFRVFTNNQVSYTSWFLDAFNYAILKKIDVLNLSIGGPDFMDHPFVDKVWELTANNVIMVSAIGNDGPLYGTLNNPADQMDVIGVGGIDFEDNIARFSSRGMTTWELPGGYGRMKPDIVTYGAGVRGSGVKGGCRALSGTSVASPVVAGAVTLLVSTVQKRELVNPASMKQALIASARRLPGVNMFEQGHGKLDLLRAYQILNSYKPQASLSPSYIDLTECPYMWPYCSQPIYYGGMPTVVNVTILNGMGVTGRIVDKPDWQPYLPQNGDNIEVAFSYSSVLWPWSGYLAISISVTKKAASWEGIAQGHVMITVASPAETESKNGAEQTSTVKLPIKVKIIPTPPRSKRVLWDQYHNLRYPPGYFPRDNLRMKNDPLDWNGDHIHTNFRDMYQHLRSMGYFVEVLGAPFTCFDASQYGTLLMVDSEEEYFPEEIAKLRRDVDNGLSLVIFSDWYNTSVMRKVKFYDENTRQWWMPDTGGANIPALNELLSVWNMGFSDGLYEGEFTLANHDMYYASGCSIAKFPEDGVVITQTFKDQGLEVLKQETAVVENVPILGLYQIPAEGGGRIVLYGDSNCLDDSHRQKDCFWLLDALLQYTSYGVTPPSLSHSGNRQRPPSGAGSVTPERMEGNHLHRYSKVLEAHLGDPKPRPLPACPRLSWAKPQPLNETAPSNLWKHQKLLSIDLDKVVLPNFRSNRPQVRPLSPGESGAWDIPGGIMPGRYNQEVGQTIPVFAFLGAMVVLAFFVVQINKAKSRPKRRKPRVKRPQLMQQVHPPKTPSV
Format: cell-based.

The target in test [9] is endogenous Furin-like PCs. The experiment in a line: cell-based or functional assay.

Turning to dec-ISRRLL-cmk (peptide), in test [1], the 50% inhibition of the processing of endogenous proSREBP-2 in CHOK1 cells (Western blot) came out at 20 µM.

For dec-RVKR-cmk (Decanoyl-RVKR-CH2Cl), in [2] (HEK293 cells, overnight, Western blot), the “concentration that completely inhibits proPDGF-A processing” value is roughly 3 µM. Moreover, the “signal/noise ratio in CELISA” value with Furin-like PCs [3] (HeLa cell pool, 60 μM inhibitor) was “above 15”. Moreover, the “conversion of cleaved chimera into uncleaved form exhibiting the HA-tag at the cell surface (FACS)” value in the test on Furin-like PCs [4] (clone PCfur-1.6, as little as 30 μM) is “completely converted into an uncleaved form”. Further, the “re-appearance of the HA tag at the cell surface (FACS)” value in the test with Furin-like PCs [4] (stable HeLa cell pool, 60 μM, 6 h) is on record as “very significant reversion of the level of the chimeric protein to that of the uncleaved form”. The “level of Golgi-associated HA tag versus ER-associated (indirect activation of NARC-1/PCSK9)” value in the test with NARC-1/PCSK9 was “a substantial decrease in the level of the Golgi-associated HA tag versus the ER-one”.

As to “α1-PDX: serpin variant, a known PCs inhibitor, expressed from cDNA or adenovirus”, in the test with Furin-like PCs [5], the “HA-tagged chimera at the cell surface by Western blot” value is given as “the presence of the HA tag at the cell surface of these cells could be observed”. For the same compound, the “increase in absorbance in CELISA, Ad:PDX compared to Ad:AT” value in the test on Furin-like PCs [3] (PCfur-1.6 cells infected with recombinant adenovirus) is roughly 7 fold. The “effect of serpin expression on presence of the HA tag at the cell surface” value with Furin-like PCs [3] was “increased the presence of the HA tag at the cell surface”.

For orientation: IC50 means the concentration needed to halve the response being measured. For `CCCCCCCCCC(=O)N[C@@H](Cc1ccc(O)cc1)C(=O)N[C@H](C(=O)N[C@@H](CO)C(=O)N[C@@H](CCCNC(=N)N)C(=O)N[C@@H](CCCNC(=N)N)C(=O)N[C@@H](CC(C)C)C(=O)N[C@@H](CC(C)C)C(=O)CCl)[C@@H](C)CC` [dec-YISRRLL-cmk] (Decanoyl-YISRRLL-CH2Cl), the “inhibition of ex vivo processing of proPDGF-A (in words)” value in [2] is listed as “not an effective inhibitor”. The IC50 is roughly 7 µM at SKI-1 [6] and no more than 1 µM against SKI-1 [7]. Further, the “re-appearance of the HA tag at the cell surface (FACS)” value on SKI-1 [8] is “A reversion of the level of the chimeric protein to that of the uncleaved form”.

In test [9], dec-RRLL-cmk (peptide) displayed an inhibition of proPDGF-A processing in HEK293 cells (Western blot of media) greater than 100 µM.

`CCCCCCCCCC(=O)N[C@H](C(=O)N[C@@H](CO)C(=O)N[C@@H](CCCNC(=N)N)C(=O)N[C@@H](CCCNC(=N)N)C(=O)N[C@@H](CC(C)C)C(=O)N[C@@H](CC(C)C)C(=O)CCl)[C@@H](C)CC` [dec-ISRRLL-cmk] (Decanoyl-ISRRLL-CH2Cl) gave an IC50 on SKI-1 [6] of roughly 20 µM.

As to `CCCCCCCCCC(=O)N[C@@H](CCCNC(=N)N)C(=O)N[C@@H](CCCNC(=N)N)C(=O)N[C@@H](CC(C)C)C(=O)N[C@@H](CC(C)C)C(=O)CCl` [dec-RRLL-cmk, reference compound] (Decanoyl-RRLL-CH2Cl), the IC50 at SKI-1 [7] was no more than 1 µM.

Turning to “α1-AT: serpin α1-antitrypsin, which does not inhibit PCs; control”, in the test on Furin-like PCs [5], the “HA-tagged chimera at the cell surface by Western blot” value is listed as “no chimeric HA-tagged chimera could be detected”. Moreover, the “effect of serpin expression on presence of the HA tag at the cell surface” value in the test with Furin-like PCs [3] was “had no effect”.
